# Test results published in patent publication US7893037B2, “Pharmaceutical composition and process” (Roche Palo Alto LLC, priority 2007, dated 2011).
# Legend:
# [1] = test system: hepatitis C virus (HCV); details: patients infected with hepatitis C virus
# [2] = bioavailability / absorption of nucleoside and prodrug; assay type: in vivo
bioavailability ([2]; in vivo),SMILES,viral load [1],absorption ([2]; in vivo),reversion of prodrug in plasma ([2]; plasma)
–,"CC(C)C(=O)OC[C@@]1(N=[N+]=[N-])O[C@@H](n2ccc(N)nc2=O)[C@H](OC(=O)C(C)C)[C@@H]1OC(=O)C(C)C.Cl [I, isobutyric acid (2R,3S,4R,5R)-5-(4-amino-2-oxo-2H-pyrimidin-1-yl)-2-azido-3,4-bis-iso-butyryloxy-tetrahydro-furan-2-ylmethyl ester; hydrochloride salt]",decrease the viral load,efficiently absorbed,revert to I in plasma
insufficient bioavailabilty,"[N-]=[N+]=NC1(CO)OC(n2ccc(N)nc2=O)C(O)C1O (stereo not shown) [II, 4-Amino-1-(5-azido-3,4-dihydroxy-5-hydroxymethyl-tetrahydro-furan-2-yl)-1H-pyrimidin-2-one, reference compound]",–,–,–
